Experimental data: patent US20140031217A1, “HERBICIDAL COMPOSITIONS COMPRISING 4-AMINO-3-CHLORO-5-FLUORO-6-(4-CHLORO-2-FLUORO-3-METHOXYPHENYL)PYRIDINE-2-CARBOXYLIC ACID OR A DERIVATIVE THEREOF AND AUXIN TRANSPORT INHIBITORS” (DOW AGROSCIENCES LLC, priority 2012, published 2014)

Experiments:
ECHCG = assay: Postemergence foliar-applied greenhouse weed control, ECHCG; format: in vivo, Echinochloa crusgalli (L.) Beauv.; settings: 20 DAA
Description: (§1) Seeds or nutlets of the desired test plant species were planted in a soil matrix prepared by mixing a loam or sandy loam soil (e.g., 28.6 percent silt, 18.8 percent clay, and 52.6 percent sand, with a pH of about 5.8 and an organic matter content of about 1.8 percent) and calcareous grit in an 80 to 20 ratio. The soil matrix was contained in plastic pots with a volume of 1 quart and a surface area of 83.6 square centimeters (cm^2). When required to ensure good germination and healthy plants, a fungicide treatment and/or other chemical or physical treatment was applied. The plants were grown for 8-22 days in a greenhouse with an approximate 14 h photoperiod which was maintained at about 29° C. during the day and 26° C. during the night. Nutrients (Peters Excel® 15-5-15 5-Ca 2-Mg and iron chelate) were applied in the irrigation solution as needed and water was added on a regular basis. Supplemental lighting was provided with overhead metal halide 1000-Watt lamps as necessary. The plants were employed for testing when they reached the first through fourth true leaf stage.
(§2) Treatments consisted of the acid or esters of 4-amino-3-chloro-5-fluoro-6-(4-chloro-2-fluoro-3-methoxy-phenyl) pyridine-2-carboxylic acid (Compound A), each formulated as an SC (suspension concentrate), and various herbicidal components alone and in combination. Forms of compound A were applied on an acid equivalent basis.
(§3) Other herbicidal components were applied on an active ingredient basis and included auxin transport inhibiting (ATI) herbicides chlorflurenol (technical material), chlorflurenol-methyl (technical material), diflufenzopyr (technical material), diflufenzopyr sodium (technical material), flurenol-methyl (technical material) and naptalam (technical material).
(§4) Treatment requirements were calculated based upon the rates being tested, the concentration of active ingredient or acid equivalent in the formulation, and a 12 mL application volume at a rate of 187 L/ha.
(§5) For treatments comprised of formulated and technical compounds, weighed amounts of the technical materials were placed individually in 25 mL glass vials and dissolved in a volume of 97:3 v/v acetone/DMSO to obtain 12× stock solutions, and measured amounts of the formulated compounds were placed individually in 25 mL glass vials and diluted in a volume of 1.5% (v/v) crop oil concentrate or water to obtain 12× stock solutions. […] Application solutions were prepared by adding an appropriate amount of each stock solution (e.g., 1 mL) and diluted to the appropriate final concentrations with the addition of an appropriate amount of an aqueous mixture of 1.5% (v/v) crop oil concentrate so that the final spray solutions contained 1.25% (v/v) crop oil concentrate. When required, additional water and/or 97:3 v/v acetone/DMSO was added to individual application solutions so that the final acetone and DMSO concentrations of the application solutions being compared were 8.1% and 0.25%, respectively.
(§6) All stock solutions and applications solutions were visually inspected for compound compatibility prior to application. Spray solutions were applied to the plant material with an overhead Mandel track sprayer equipped with an 8002E nozzle calibrated to deliver 187 L/ha over an application area of 0.503 m^2 at a spray height of 18 to 20 inches (46 to 50 cm) above average plant canopy height. Control plants were sprayed in the same manner with the solvent blank.
(§7) The treated plants and control plants were placed in a greenhouse as described above and watered by sub-irrigation to prevent wash-off of the test compounds. After approximately 3 weeks, the condition of the test plants as compared with that of the untreated plants was determined visually and scored on a scale of 0 to 100 percent where 0 corresponds to no injury or growth inhibition and 100 corresponds to complete kill. […]

ECHCO = assay: Postemergence foliar-applied greenhouse weed control, ECHCO; format: in vivo, Echinochloa colona (L.) Link
Description: as §1, §2, §3, §4, §5, §6, §7

BRAPP = assay: Postemergence foliar-applied greenhouse weed control, BRAPP; format: in vivo, Brachiaria platyphylla (Griseb.) Nash
Description: as §1, §2, §3, §4, §5, §6, §7

CYPIR = assay: Postemergence foliar-applied greenhouse weed control, CYPIR; format: in vivo, Cyperus iria L.
Description: as §1, §2, §3, §4, §5, §6, §7

LEFCH = assay: Postemergence foliar-applied greenhouse weed control, LEFCH; format: in vivo, Leptochloa chinensis (L.) Nees
Description: as §1, §2, §3, §4, §5, §6, §7

| Compound | Visual Weed Control (%) Obs (ECHCG; 4.38 gae/ha) | Visual Weed Control (%) Obs (ECHCG; 8.75 gae/ha) | Visual Weed Control (%) Obs (ECHCO; 20 DAA, 4.38 gae/ha) | Visual Weed Control (%) Obs (ECHCO; 21 DAA, 4.38 gae/ha) | Visual Weed Control (%) Obs (BRAPP; 21 DAA, 8.75 gae/ha) | Visual Weed Control (%) Obs (CYPIR; 20 DAA, 4.38 gae/ha) | Visual Weed Control (%) Obs (LEFCH; 20 DAA, 4.38 gae/ha) | Visual Weed Control (%) Obs (LEFCH; 20 DAA, 8.75 gae/ha) | Visual Weed Control (%) Obs (LEFCH; 20 DAA, 17.5 gae/ha) | Visual Weed Control (%) Obs (LEFCH; 21 DAA, 8.75 gae/ha) | Visual Weed Control (%) Obs (LEFCH; 21 DAA, 17.5 gae/ha) | Visual Weed Control (%) Obs (ECHCO; 20 DAA, 8.75 gae/ha) | Visual Weed Control (%) Obs (BRAPP; 21 DAA, 4.38 gae/ha) | Visual Weed Control (%) Obs (BRAPP; 21 DAA, 17.5 gae/ha) | Visual Weed Control (%) Obs (BRAPP; 22 DAA, 8 gae/ha) | Visual Weed Control (%) Obs (BRAPP; 22 DAA, 16 gae/ha) | Visual Weed Control (%) Obs (CYPIR; 22 DAA, 8 gae/ha) | Visual Weed Control (%) Obs (LEFCH; 21 DAA, 4.38 gae/ha) | Visual Weed Control (%) Obs (LEFCH; 22 DAA, 32 gae/ha) |
| --- | --- | --- | --- | --- | --- | --- | --- | --- | --- | --- | --- | --- | --- | --- | --- | --- | --- | --- | --- |
| COc1c(Cl)ccc(-c2nc(C(=O)O)c(Cl)c(N)c2F)c1F [Compound A Acid, 4-amino-3-chloro-6-(4-chloro-2-fluoro-3-methoxyphenyl)-5-fluoropyridine-2-carboxylic acid] | 60% | 80% | 40% | 60% | 60% | 30% | 0% | 30% | 30% | 30% | 30% | – | – | – | – | – | – | – | – |
| COc1c(Cl)ccc(-c2nc(C(=O)OCc3ccccc3)c(Cl)c(N)c2F)c1F [Compound A Benzyl Ester] | 60% | – | 60% | – | 75% | 70% | 15% | 30% | – | 40% | 50% | 80% | 70% | 95% | 35% | 80% | 30% | 15% | 40% |
